The structures appear in SMILES notation. Where only a bound is given, the exact number is not on record here.

The subject of this experiment is PANC-1. Nature of the experiment: Cytotoxicity against human PANC1 cells assessed as cell viability. Format: functional.
Consider `CC(C)=CCC/C(C)=C/COC(=O)c1c(O)cc(O)cc1CCc1ccccc1`, for which the PC100 was determined as 16 µM. With `COc1cc(O)c2c(c1C/C=C(\C)CCC=C(C)C)O[C@@H](c1ccccc1)CC2=O` the figure was 128 µM; with `CC(C)=CCC/C(C)=C/Cc1c(O)cc2c(c1O)C(=O)C[C@@H](c1ccccc1)O2`, 8 µM; with `COc1cc(O)cc2c1C(=O)C[C@@H](c1ccccc1)O2`, more than 256 µM. With `COc1cc(O)cc2c1C(=O)C[C@@H](c1ccc(O)cc1)O2` the figure was more than 256 µM. The figure for `COc1cc(O)c(C/C=C(\C)CCC=C(C)C)c(O)c1C(=O)/C=C/c1ccccc1` is 16 µM; for `CC(C)=CC[C@@H]1C(C)=CC[C@@H](C(=O)c2c(O)cc(O)cc2O)[C@@H]1c1ccccc1` it is 16 µM; for `COc1cc(O)cc(O)c1C(=O)[C@@H]1[C@H](CC=C(C)C)C(C)=CC[C@H]1c1ccccc1` it is 16 µM.

`COc1cc2c(c(O)c1C/C=C(\C)CCC=C(C)C)C(=O)C[C@@H](c1ccccc1)O2`: the PC100 was 128 µM.

For the compound `CC(C)=CCCC1(C)C=Cc2c(cc3c(c2O)C(=O)C[C@@H](c2ccccc2)O3)O1` (stereo partly specified), the PC100 is 64 µM. On to `COc1cc(O)cc(O)c1C(=O)[C@@H]1CC=C(C)[C@@H](CC=C(C)C)[C@H]1c1ccccc1` (racemic), for which the PC100 was 8 µM.

Take `COc1cc(O)c(C(=O)[C@@H]2[C@H](CC=C(C)C)C(C)=CC[C@H]2c2ccccc2)c(OC)c1` (racemic): the PC100 was found to be 64 µM. `COc1cc(O)cc(O)c1C(=O)[C@@H]1[C@H](CC=C(C)C)C(C)=CC[C@H]1c1ccc(O)cc1` (racemic): the PC100 was more than 256 µM.

As for `CC(C)=CC[C@@H]1C(C)=CC[C@@H](c2ccccc2)[C@@H]1C(=O)c1c(O)cc(O)cc1O` [4-HYDROXYPANDURATIN A], the PC100 was 16 µM.

In the case of `COc1cc(O)c(C(=O)[C@@H]2CC=C(C)[C@@H](CC=C(C)C)[C@H]2c2ccccc2)c(O)c1` [(-)-NICOLAIOIDESIN B], the PC100 is 2.5 µM. Regarding `COc1cc(C[C@H]2C(=O)OC[C@@H]2Cc2ccc(OC)c(OC)c2)ccc1O` [ARCTIGENIN], the PC100 was 1 µM.

As for `COc1cc(O)c(C(=O)/C=C/c2ccccc2)c2c1C=CC(C)(CCC=C(C)C)O2` (stereo unspecified) [BOESENBERGIN A], the PC100 was found to be 64 µM.

For `COc1cc2c(c(O)c1C(=O)/C=C/c1ccccc1)C=CC(C)(CCC=C(C)C)O2` (stereo unspecified) [BOESENBERGIN B], the PC100 came to 64 µM. With `COc1cc(O)cc(O)c1C(=O)/C=C/c1ccccc1` [CARDAMOMIN] the figure was more than 256 µM. As to `COc1cc(/C=C/c2ccccc2)oc(=O)c1` [DESMETHOXYYANGONIN], the PC100 was more than 256 µM.

For the compound `COc1cc(O)c(C(=O)/C=C/c2ccc(O)cc2)c(OC)c1` [FLAVOKAWAIN C], the PC100 was more than 256 µM. With `CC(=O)O[C@H]1C(=O)[C@@]2(C)[C@H]([C@H](OC(=O)c3ccccc3)[C@]3(O)C[C@H](OC(=O)[C@H](O)[C@@H](NC(=O)c4ccccc4)c4ccccc4)C(C)=C1C3(C)C)[C@]1(OC(C)=O)CO[C@@H]1C[C@@H]2O` [PACLITAXEL] the figure was more than 256 µM; with `COc1cc(O)c(C(=O)[C@@H]2[C@H](CC=C(C)C)C(C)=CC[C@H]2c2ccccc2)c(O)c1` [PANDURATIN A], 2.5 µM; with `O=C1C[C@@H](c2ccccc2)Oc2cc(O)cc(O)c21` [PINOCEMBRIN], 64 µM. Consider `COc1cc(O)c2c(c1)O[C@H](c1ccccc1)CC2=O` [PINOSTROBIN], for which the PC100 was more than 256 µM.

For `COc1cc(O)c2c(=O)cc(-c3ccccc3)oc2c1` [TECHTOCHRYSIN], the PC100 was more than 256 µM.

(Values after ChEMBL document CHEMBL1141311, “Bioactive secondary metabolites from Boesenbergia pandurata of Myanmar and their preferential cytotoxicity against human pancreatic cancer PANC-1 cell line in nutrient-deprived medium” (2007).)
